Assay results as given in article PMC5519986 (2017).

Assays:
[1] = system: dsDNA (control duplex DNA) (DNA, duplex) CAAAAATTTTTGCAAAAATTTTTG; assay: fluorescence titration (ligand fluorescence, Hill fit); settings: K+ (100 mM Tris-KCl), pH 7.4, 25 °C, 1 μM ligand titrated with DNA
[2] = system: c-MYC G-quadruplex DNA, dual labelled (FRET) (DNA, G4) GGGGAGGGTGGGGAGGGTGGGG; assay: FRET melting; settings: K+ (60 mM potassium cacodylate), pH 7.4, 100 nM DNA, 1 μM compound
[3] = system: c-MYC G-quadruplex DNA (DNA, G4) GGGGAGGGTGGGGAGGGTGGGG; assay: fluorescence titration (ligand fluorescence, Hill fit); settings: K+ (100 mM Tris-KCl), pH 7.4, 25 °C, 1 μM ligand titrated with DNA
[4] = system: dsDNA, dual labelled (FRET) (DNA, duplex) CAAAAATTTTTGCAAAAATTTTTG; assay: FRET melting; settings: K+ (60 mM potassium cacodylate), pH 7.4, 100 nM DNA, 1 μM compound

Row | KD [1] [nM] | ΔTm [2] [°C] | KD [3] [nM] | ΔTm [4] [°C] | Compound
1 | > 25000 | 11.14±0.28 | 510 ± 50 | 1.61±0.12 | CN(C)CCCNC(=O)c1ccc(-n2c3ccccc3c3cc(-c4cn(-c5ccc(N)cc5)nn4)ccc32)cc1
2 | 880 ± 20 | 8.17±0.41 | 1130 ± 30 | 8.41±0.21 | CN(C)CCCNC(=O)c1ccc(-n2c3ccccc3c3cc(-c4cn(CCCN(C)C)nn4)ccc32)cc1
3 | > 30000 | 19.3±0.96 | 170 ± 10 | 0.86±0.04 | CN(C)CCCNC(=O)c1ccc(-n2cc(-c3ccc4c(c3)c3ccccc3n4-c3ccc(C(=O)NCCCN(C)C)cc3)nn2)cc1
